Experimental data: a compilation of properties of binary mixtures (doi:10.1021/je990135o)

Assay: excess molar enthalpy (molar enthalpy of mixing); xn = mol fraction of the nth substance listed
Conditions: 100 kPa

CCCCOCCO + CCOC(=O)OCC
298.15 K
Conditions	excess molar enthalpy [kcal/mol]
x2 = 0.043	0.0402
x2 = 0.0431	0.038
x2 = 0.0824	0.076
x2 = 0.0827	0.0707
x2 = 0.1188	0.107
x2 = 0.1191	0.098
x2 = 0.2123	0.177
x2 = 0.2129	0.163
x2 = 0.265	0.191
x2 = 0.3503	0.254
x2 = 0.351	0.229
x2 = 0.4181	0.278
x2 = 0.4189	0.25
x2 = 0.5196	0.268
x2 = 0.6138	0.267
x2 = 0.618	0.295
x2 = 0.6832	0.281
x2 = 0.7639	0.245
x2 = 0.7644	0.227
x2 = 0.8118	0.218
x2 = 0.8123	0.202
x2 = 0.8661	0.173
x2 = 0.8665	0.159
x2 = 0.8961	0.142
x2 = 0.8964	0.134
x2 = 0.9228	0.0593
x2 = 0.9283	0.106
x2 = 0.9285	0.0994

CCCCOCCOCCO + CCOC(=O)OCC
Conditions	excess molar enthalpy [kcal/mol]
298.15 K, x2 = 0.0553	0.0217
298.15 K, x2 = 0.1047	0.0433
298.15 K, x2 = 0.1493	0.06
298.15 K, x2 = 0.1896	0.0793
298.15 K, x2 = 0.2598	0.106
298.15 K, x2 = 0.3188	0.125
298.15 K, x2 = 0.4125	0.151
298.15 K, x2 = 0.4834	0.165
298.15 K, x2 = 0.584	0.176
298.15 K, x2 = 0.6781	0.175
298.15 K, x2 = 0.8081	0.15
298.15 K, x2 = 0.8488	0.131
298.15 K, x2 = 0.8939	0.104
298.15 K, x2 = 0.9182	0.0884
298.15 K, x2 = 0.944	0.0641
298.15 K, x2 = 0.9712	0.0356
313.15 K, x2 = 0.1043	0.0521
313.15 K, x2 = 0.1488	0.0743
313.15 K, x2 = 0.3179	0.149
313.15 K, x2 = 0.4114	0.175
313.15 K, x2 = 0.4823	0.193
313.15 K, x2 = 0.583	0.205
313.15 K, x2 = 0.6772	0.204
313.15 K, x2 = 0.7366	0.193
313.15 K, x2 = 0.8075	0.171
313.15 K, x2 = 0.8935	0.12
313.15 K, x2 = 0.9179	0.0973
313.15 K, x2 = 0.9438	0.0715
313.15 K, x2 = 0.9711	0.0392

CCOCCO + CCOC(=O)OCC
Conditions	excess molar enthalpy [kcal/mol]
298.15 K, x2 = 0.0322	0.0225
298.15 K, x2 = 0.0624	0.0433
298.15 K, x2 = 0.1175	0.0801
298.15 K, x2 = 0.1666	0.11
298.15 K, x2 = 0.2104	0.136
298.15 K, x2 = 0.2855	0.171
298.15 K, x2 = 0.4442	0.223
298.15 K, x2 = 0.5454	0.234
298.15 K, x2 = 0.7057	0.221
298.15 K, x2 = 0.8275	0.17
298.15 K, x2 = 0.8648	0.145
298.15 K, x2 = 0.9056	0.111
313.15 K, x2 = 0.0321	0.028
313.15 K, x2 = 0.0623	0.0531
313.15 K, x2 = 0.0906	0.0753
313.15 K, x2 = 0.1173	0.0951
313.15 K, x2 = 0.2099	0.158
313.15 K, x2 = 0.285	0.199
313.15 K, x2 = 0.3469	0.226
313.15 K, x2 = 0.4436	0.256
313.15 K, x2 = 0.5447	0.27
313.15 K, x2 = 0.6146	0.271
313.15 K, x2 = 0.7052	0.254
313.15 K, x2 = 0.8271	0.193
313.15 K, x2 = 0.8645	0.165
313.15 K, x2 = 0.9054	0.124
313.15 K, x2 = 0.9503	0.0717

CCOCCOCCO + CCOC(=O)OCC
Conditions	excess molar enthalpy [kcal/mol]
298.15 K, x2 = 0.1227	0.0459
298.15 K, x2 = 0.1571	0.0614
298.15 K, x2 = 0.2185	0.0837
298.15 K, x2 = 0.2716	0.102
298.15 K, x2 = 0.3587	0.128
298.15 K, x2 = 0.4271	0.146
298.15 K, x2 = 0.528	0.163
298.15 K, x2 = 0.6911	0.168
298.15 K, x2 = 0.8173	0.141
298.15 K, x2 = 0.8995	0.0985
298.15 K, x2 = 0.9307	0.0748
298.15 K, x2 = 0.9641	0.0425
313.15 K, x2 = 0.0443	0.0198
313.15 K, x2 = 0.1222	0.0574
313.15 K, x2 = 0.1566	0.0767
313.15 K, x2 = 0.2313	0.109
313.15 K, x2 = 0.2708	0.126
313.15 K, x2 = 0.3578	0.157
313.15 K, x2 = 0.4261	0.175
313.15 K, x2 = 0.527	0.197
313.15 K, x2 = 0.6257	0.202
313.15 K, x2 = 0.7697	0.184
313.15 K, x2 = 0.8167	0.167
313.15 K, x2 = 0.8699	0.139
313.15 K, x2 = 0.8991	0.117
313.15 K, x2 = 0.9304	0.0872

COCCO + CCOC(=O)OCC
298.15 K
Conditions	excess molar enthalpy [kcal/mol]
x2 = 0.0263	0.0225
x2 = 0.0264	0.0191
x2 = 0.0512	0.0437
x2 = 0.0514	0.0363
x2 = 0.075	0.0607
x2 = 0.0975	0.0798
x2 = 0.0978	0.0672
x2 = 0.1395	0.112
x2 = 0.1398	0.0973
x2 = 0.1777	0.138
x2 = 0.1781	0.119
x2 = 0.2454	0.153
x2 = 0.3017	0.208
x2 = 0.3023	0.178
x2 = 0.3933	0.246
x2 = 0.3941	0.211
x2 = 0.4931	0.268
x2 = 0.4939	0.23
x2 = 0.5646	0.274
x2 = 0.5653	0.237
x2 = 0.6605	0.265
x2 = 0.6611	0.23
x2 = 0.7217	0.247
x2 = 0.7223	0.218
x2 = 0.796	0.188
x2 = 0.8384	0.182
x2 = 0.8388	0.164
x2 = 0.8861	0.142
x2 = 0.8864	0.129
x2 = 0.9396	0.0841
x2 = 0.9398	0.0767

COCCOCCO + CCOC(=O)OCC
Conditions	excess molar enthalpy [kcal/mol]
298.15 K, x2 = 0.0388	0.0174
298.15 K, x2 = 0.0748	0.0337
298.15 K, x2 = 0.1392	0.06
298.15 K, x2 = 0.1952	0.0827
298.15 K, x2 = 0.2444	0.103
298.15 K, x2 = 0.3267	0.126
298.15 K, x2 = 0.3927	0.146
298.15 K, x2 = 0.66	0.175
298.15 K, x2 = 0.7443	0.165
298.15 K, x2 = 0.7951	0.151
298.15 K, x2 = 0.8534	0.125
298.15 K, x2 = 0.8859	0.109
298.15 K, x2 = 0.9209	0.0827
298.15 K, x2 = 0.9588	0.0471
313.15 K, x2 = 0.0387	0.0201
313.15 K, x2 = 0.1077	0.0576
313.15 K, x2 = 0.1386	0.0739
313.15 K, x2 = 0.1945	0.101
313.15 K, x2 = 0.2436	0.125
313.15 K, x2 = 0.3257	0.157
313.15 K, x2 = 0.3916	0.179
313.15 K, x2 = 0.4914	0.202
313.15 K, x2 = 0.6589	0.215
313.15 K, x2 = 0.7435	0.201
313.15 K, x2 = 0.7944	0.185
313.15 K, x2 = 0.8529	0.156
313.15 K, x2 = 0.8854	0.133
313.15 K, x2 = 0.9587	0.0583
